This is an account of results in ChEMBL document CHEMBL6092154, “Design, synthesis, and evaluation of a novel TRAIL-activated HDAC6 inhibitor for the treatment of pulmonary fibrosis” (Bioorg Med Chem, 2024).

In one experiment the target is Histone deacetylase 2 (Homo sapiens, UniProt Q92769). The experiment can be described thus: Inhibition of HDAC2 (unknown origin) at 1 uM incubated for 30 mins by fluorometric analysis.
Experiment [1] deals with T1, Protein deacetylase HDAC6 (Homo sapiens) (UniProt Q9UBN7).
T1 sequence (whole entry): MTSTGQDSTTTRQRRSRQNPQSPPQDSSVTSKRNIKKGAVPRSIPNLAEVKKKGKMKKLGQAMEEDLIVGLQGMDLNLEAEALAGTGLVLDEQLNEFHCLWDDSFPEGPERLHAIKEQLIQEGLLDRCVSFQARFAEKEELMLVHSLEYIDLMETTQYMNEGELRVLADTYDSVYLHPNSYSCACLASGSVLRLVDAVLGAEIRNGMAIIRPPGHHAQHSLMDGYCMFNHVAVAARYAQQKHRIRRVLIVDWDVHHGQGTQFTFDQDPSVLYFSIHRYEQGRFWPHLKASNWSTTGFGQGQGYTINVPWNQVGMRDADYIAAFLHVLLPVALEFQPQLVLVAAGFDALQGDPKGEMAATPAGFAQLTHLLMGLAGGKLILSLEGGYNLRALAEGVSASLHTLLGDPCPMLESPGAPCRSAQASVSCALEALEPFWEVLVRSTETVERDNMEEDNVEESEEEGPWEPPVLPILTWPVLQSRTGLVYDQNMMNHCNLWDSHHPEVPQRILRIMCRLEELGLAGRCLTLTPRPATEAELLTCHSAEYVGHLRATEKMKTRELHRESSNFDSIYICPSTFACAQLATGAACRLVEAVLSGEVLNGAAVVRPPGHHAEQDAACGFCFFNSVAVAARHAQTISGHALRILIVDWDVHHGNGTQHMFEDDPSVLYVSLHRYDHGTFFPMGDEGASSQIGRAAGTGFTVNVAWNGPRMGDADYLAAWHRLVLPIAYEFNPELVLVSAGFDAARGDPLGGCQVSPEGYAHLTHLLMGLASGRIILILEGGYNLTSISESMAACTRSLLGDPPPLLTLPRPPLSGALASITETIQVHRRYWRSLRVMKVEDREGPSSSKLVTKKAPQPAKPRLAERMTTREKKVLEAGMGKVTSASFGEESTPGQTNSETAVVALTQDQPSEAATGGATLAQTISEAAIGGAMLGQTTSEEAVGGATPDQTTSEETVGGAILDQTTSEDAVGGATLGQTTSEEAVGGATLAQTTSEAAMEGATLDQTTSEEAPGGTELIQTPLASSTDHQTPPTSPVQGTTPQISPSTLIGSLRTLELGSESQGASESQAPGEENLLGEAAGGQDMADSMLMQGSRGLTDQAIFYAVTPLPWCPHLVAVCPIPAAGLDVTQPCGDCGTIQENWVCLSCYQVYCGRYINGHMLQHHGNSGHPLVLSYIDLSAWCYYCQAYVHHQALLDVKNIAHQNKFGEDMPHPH
Description: Inhibition of HDAC6 (unknown origin) at 1 uM incubated for 30 mins by fluorometric analysis.

Experiment [2] concerns the target T2, Histone deacetylase 8 (Homo sapiens) (UniProt Q9BY41).
T2 sequence (whole entry): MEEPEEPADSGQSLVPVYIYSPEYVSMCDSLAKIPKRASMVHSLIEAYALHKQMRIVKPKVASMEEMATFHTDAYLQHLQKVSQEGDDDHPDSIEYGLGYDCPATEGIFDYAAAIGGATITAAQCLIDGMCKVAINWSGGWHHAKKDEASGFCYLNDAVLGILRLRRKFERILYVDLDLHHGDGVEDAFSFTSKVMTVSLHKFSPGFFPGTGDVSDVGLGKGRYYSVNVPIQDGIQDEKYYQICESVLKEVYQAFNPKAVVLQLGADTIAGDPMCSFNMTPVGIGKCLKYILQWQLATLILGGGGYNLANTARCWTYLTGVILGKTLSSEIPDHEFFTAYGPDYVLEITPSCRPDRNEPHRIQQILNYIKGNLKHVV
The experiment can be described thus: Inhibition of HDAC8 (unknown origin) at 1 uM incubated for 30 mins by fluorometric analysis.

A further experiment relates to NIH3T3. Description: Antiproliferative activity against mouse NIH/3T3 cells assessed as inhibition of cell growth incubated for 24 to 48 hrs by CCK8 assay. It is filed as functional, cell-based.
A further experiment deals with RPMI-8226. Description: Antiproliferative activity against human RPMI-8226 cells assessed as inhibition of cell growth incubated for 24 to 48 hrs by CCK8 assay. The experiment is classed as functional, cell-based.
The next experiment has as its system Fibroblast. Description: Antiproliferative activity against human primary fibroblasts assessed as inhibition of cell growth incubated for 24 to 48 hrs by CCK8 assay. The experiment is classed as functional, cell-based.
Experiment [3] has as its target T3, Protein deacetylase HDAC6 (Homo sapiens, UniProt Q9UBN7).
T3 sequence (Q9UBN7 whole entry): T1 sequence (whole entry)
Description: Inhibition of HDAC6 (unknown origin) incubated for 30 mins by fluorometric analysis.

Experiment [4] addresses Histone deacetylase 1 (Homo sapiens) (UniProt Q13547). The experiment can be described thus: Inhibition of HDAC1 (unknown origin) at 1 uM incubated for 30 mins by fluorometric analysis.
A further experiment concerns the target Histone deacetylase 3 (Homo sapiens, UniProt O15379). The experiment can be described thus: Inhibition of HDAC3 (unknown origin) at 1 uM incubated for 30 mins by fluorometric analysis.

Each structure is given as a SMILES string.

Histone deacetylase 1 (Homo sapiens), sequence (Q13547 whole entry): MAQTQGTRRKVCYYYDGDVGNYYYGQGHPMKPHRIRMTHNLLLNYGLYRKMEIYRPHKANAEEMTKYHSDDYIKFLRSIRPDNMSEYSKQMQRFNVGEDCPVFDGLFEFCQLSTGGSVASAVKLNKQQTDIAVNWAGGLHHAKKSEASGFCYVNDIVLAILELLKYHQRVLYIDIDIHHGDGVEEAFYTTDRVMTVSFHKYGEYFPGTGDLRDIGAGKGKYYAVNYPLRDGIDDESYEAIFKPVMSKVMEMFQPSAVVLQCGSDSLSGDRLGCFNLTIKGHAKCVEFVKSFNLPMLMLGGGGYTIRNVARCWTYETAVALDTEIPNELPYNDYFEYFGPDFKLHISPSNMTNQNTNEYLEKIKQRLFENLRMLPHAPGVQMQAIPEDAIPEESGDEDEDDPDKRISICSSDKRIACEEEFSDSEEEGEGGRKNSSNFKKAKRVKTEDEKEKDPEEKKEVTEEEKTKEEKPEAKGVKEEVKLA
Histone deacetylase 3, sequence (O15379 whole entry): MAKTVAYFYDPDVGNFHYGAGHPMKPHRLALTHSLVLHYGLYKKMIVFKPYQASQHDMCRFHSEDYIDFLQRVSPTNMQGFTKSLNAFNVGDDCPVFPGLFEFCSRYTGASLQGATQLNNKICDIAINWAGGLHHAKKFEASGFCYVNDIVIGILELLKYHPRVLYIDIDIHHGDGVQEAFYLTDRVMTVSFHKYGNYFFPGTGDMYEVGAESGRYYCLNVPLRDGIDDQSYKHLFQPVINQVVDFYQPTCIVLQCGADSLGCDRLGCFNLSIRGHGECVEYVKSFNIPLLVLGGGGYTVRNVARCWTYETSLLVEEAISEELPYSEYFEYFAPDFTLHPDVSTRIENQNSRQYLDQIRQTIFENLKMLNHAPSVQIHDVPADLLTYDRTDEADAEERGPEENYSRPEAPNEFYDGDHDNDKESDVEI
Histone deacetylase 2, sequence (Q92769 whole entry): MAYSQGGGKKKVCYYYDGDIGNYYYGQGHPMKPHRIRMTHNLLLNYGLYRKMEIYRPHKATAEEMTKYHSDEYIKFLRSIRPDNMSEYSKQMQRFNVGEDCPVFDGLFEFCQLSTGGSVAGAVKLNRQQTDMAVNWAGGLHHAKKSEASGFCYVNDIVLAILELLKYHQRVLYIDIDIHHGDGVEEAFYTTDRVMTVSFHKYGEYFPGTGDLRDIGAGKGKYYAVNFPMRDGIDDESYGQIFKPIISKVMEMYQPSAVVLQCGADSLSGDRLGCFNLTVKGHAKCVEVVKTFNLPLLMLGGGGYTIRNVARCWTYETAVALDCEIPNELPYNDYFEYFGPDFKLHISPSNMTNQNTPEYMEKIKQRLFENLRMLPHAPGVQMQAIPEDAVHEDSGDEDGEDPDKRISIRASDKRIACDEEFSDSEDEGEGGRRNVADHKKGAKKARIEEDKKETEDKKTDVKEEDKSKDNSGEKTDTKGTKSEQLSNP

For `O=C(NO)c1ccc(CN2C(=O)C3=C(CCN(Cc4cccc(C(F)(F)F)c4Cl)C3)N3CCN=C23)cc1`, the inhibition came out at 60.8% at Histone deacetylase 2; 94.1% in experiment [1]; 31% in [2]; 18.3% in experiment [4]; 52.7% against Histone deacetylase 3. For the same compound, the concentration for half-maximal inhibition (IC50) in the experiment with NIH3T3 is 6.71 µM; with RPMI-8226 it was 49.4 µM; in the experiment with Fibroblast, 111 µM; in [3], 0.0601 µM.
Regarding `Cc1cccc(CN2CCC3=C(C2)C(=O)N(Cc2ccc(C(=O)NO)cc2)C2=NCCN23)c1`, the inhibition at Histone deacetylase 2 stood at 61.7%; in experiment [1], 93.8%; in experiment [2] it was 74.9%; in [4] it was 44.7%; at Histone deacetylase 3, 50.6%. Further, the half-maximal inhibitory concentration (IC50) amounted to 0.09 µM in the experiment with NIH3T3, 1.06 µM in the experiment with RPMI-8226, 50.7 µM in the experiment with Fibroblast and 0.0548 µM in experiment [3].
Regarding `COc1cccc(CN2CCC3=C(C2)C(=O)N(Cc2ccc(C(=O)NO)cc2)C2=NCCN23)c1`, the inhibition was found to be 57.6% on Histone deacetylase 2; 95.4% in experiment [1]; 72.2% in experiment [2]; 59.3% in [4]; 52.3% on Histone deacetylase 3. For the same compound, the IC50 was 11.4 µM in the experiment on NIH3T3, 0.1 µM with RPMI-8226, 55.1 µM in the experiment with Fibroblast and 0.104 µM in experiment [3].
For the compound `Cc1ccccc1CN1CCC2=C(C1)C(=O)N(Cc1ccc(C(=O)NO)cc1)C1=NCCN12`, the inhibition came to 60.5% on Histone deacetylase 2; 94.7% in experiment [1]; 69.8% in experiment [2]; 32.4% in experiment [4]; 51.2% against Histone deacetylase 3. Besides, the IC50 is 5.9 µM in the experiment with NIH3T3, 10.7 µM in the experiment with RPMI-8226, 59.2 µM in the experiment on Fibroblast and 0.048 µM in experiment [3].
On to `Cc1ccc(CN2CCC3=C(C2)C(=O)N(Cc2ccc(C(=O)NO)cc2)C2=NCCN23)cc1`, for which the inhibition on Histone deacetylase 2 is 58.4%; in experiment [1], 91.3%; in experiment [2], 63.6%; in experiment [4], 31.8%; at Histone deacetylase 3, 53.1%. In addition, the IC50 is 1.63 µM in the experiment with NIH3T3, 13.3 µM in the experiment on RPMI-8226, 136 µM in the experiment on Fibroblast and 0.0509 µM in experiment [3].
Take `O=C(NO)c1ccc(CN2C(=O)C3=C(CCN(Cc4cccnc4)C3)N3CCN=C23)cc1`: the inhibition was found to be 46.3% on Histone deacetylase 2; 95.1% in experiment [1]; 66.4% in experiment [2]; 9.3% in experiment [4]; 36.2% against Histone deacetylase 3. Besides, the IC50 amounted to 8.4 µM in the experiment on NIH3T3, 2.88 µM with RPMI-8226, 4.58 µM with Fibroblast and 0.137 µM in [3].
Turning to `O=C(NO)c1ccc(CN2C(=O)C3=C(CCN(Cc4cccc(F)c4)C3)N3CCN=C23)cc1`, the inhibition on Histone deacetylase 2 came out at 61.9%; in [1], 97.1%; in experiment [2] it was 75%; in experiment [4] it was 47.9%; on Histone deacetylase 3, 56.4%. Besides, the half-inhibitory concentration (IC50) with NIH3T3 turned out to be 6.51 µM; in the experiment with RPMI-8226 it was 1.58 µM; in the experiment with Fibroblast it was 26.7 µM; in experiment [3], 0.0644 µM.
As to `O=C(NO)c1ccc(CN2C(=O)C3=C(CCN(Cc4cccc(Br)c4)C3)N3CCN=C23)cc1`, the inhibition stood at 63.9% against Histone deacetylase 2; 93.6% in experiment [1]; 76% in experiment [2]; 36.4% in [4]; 56.6% on Histone deacetylase 3. Besides, the concentration for half-maximal inhibition (IC50) in the experiment with NIH3T3 came out at 0.1 µM; in the experiment on RPMI-8226, 1.86 µM; with Fibroblast it was 47.4 µM; in experiment [3] it was 0.0315 µM.
Consider `O=C(NO)c1ccc(CN2C(=O)C3=C(CCN(Cc4ccccc4)C3)N3CCN=C23)cc1`, for which the inhibition on Histone deacetylase 2 stood at 56.8%; in experiment [1], 97.2%; in experiment [2] it was 72.8%; in [4], 68.3%; on Histone deacetylase 3, 51.9%. Further, the IC50 with NIH3T3 is 1 µM; with RPMI-8226, 0.62 µM; in the experiment with Fibroblast, 30.6 µM; in experiment [3], 0.0654 µM.
Turning to `O=C(CCCCCCNC(=O)c1cnc(N(c2ccccc2)c2ccccc2)nc1)NO` [RICOLINOSTAT], the inhibition in experiment [1] was determined as 98.5%. The IC50 in the experiment on NIH3T3 stood at 3.53 µM; in the experiment with RPMI-8226, 0.85 µM; with Fibroblast, 35.1 µM.
As to `O=C(NO)c1ccc(CN2C(=O)C3=C(CCN(Cc4ccc(Cl)c(C(F)(F)F)c4)C3)N3CCN=C23)cc1`, the inhibition against Histone deacetylase 2 was found to be 62.7%; in experiment [1], 96.2%; in experiment [2] it was 48.2%; in experiment [4], 27.2%; against Histone deacetylase 3 it was 43.8%. Also, the IC50 in the experiment on NIH3T3 was found to be 9.88 µM; with RPMI-8226, 1.08 µM; in the experiment with Fibroblast, 45.3 µM; in experiment [3], 0.0368 µM.
